We go through 15 compounds from ChEMBL document CHEMBL1759939, “Novel analogues of ketamine and phencyclidine as NMDA receptor antagonists” (Bioorg Med Chem Lett, 2011).

Some results are limits rather than exact numbers.

In assay [1] the target is Glutamate NMDA receptor; GRIN1/GRIN2B (Homo sapiens, UniProt Q05586+Q13224). The experiment in a line: Inhibition of human recombinant NR1/NR2B receptor expressed in U2OS assessed as change in intracellular calcium level by FLIPR assay. The format is cell-based. Further details: concentration or dose not given beside the values.
In assay [2] the target is Glutamate NMDA receptor; GRIN1/GRIN2A (Homo sapiens, UniProt Q05586+Q12879). The experiment in a line: Inhibition of human recombinant NR1/NR2A receptor expressed in U2OS assessed as change in intracellular calcium level by FLIPR assay. Type of assay: cell-based. Details: concentration or dose not given beside the values. (In general: Calcium assays in cells follow changes in intracellular calcium, usually with a dye or a luminescent sensor.)

For the compound `CNC1(c2ccccc2Cl)CCCNC1=O` (stereo not given), in assay [1], the Activity turned out to be 80% and the IC50 (usually the concentration that gives 50% inhibition) was > 251 µM. For the same compound, in assay [2], the Activity was determined as 80% and the IC50 was 39.8 µM.

On to `c1ccc(C2(N3CCCCC3)CCCCC2)nc1`, for which the Activity in assay [1] and in assay [2] was 94% in each case. Further, the IC50 is 7.94 µM in assay [1] and 2.51 µM in assay [2].

On to `c1ccc(C2(N3CCCCC3)CCCCC2)cc1` [PHENCYCLIDINE], for which, in assay [1], the Activity was > 100% and the IC50 is 1.26 µM. Moreover, in assay [2], the Activity is > 100% and the IC50 is 0.398 µM.

`CNC1(c2ccccc2Cl)CCCN(C)C1=O` (stereo not given): the Activity in assay [1] and in assay [2] was 80% throughout. For the same compound, the IC50 in assay [1] and in assay [2] was > 251 µM each time.

Turning to `CNC1(c2ccc(OC)cc2Cl)CCCCC1=O` (stereo not given), the Activity in assay [1] and in assay [2] was 80% each time. Also, the IC50 in assay [1] was 20 µM; in assay [2], 10 µM.

In the case of `FC(F)(F)COc1cccc(C2(N3CCCCC3)CCCCC2)c1`, the Activity in assay [1] and in assay [2] was 94% throughout. The IC50 in assay [1] is 31.6 µM; in assay [2] it was 5.01 µM.

Take `O=C1NCCC1(c1ccccc1)N1CCCCC1` (stereo not given): in assay [1], the Activity was 80% and the IC50 is 63.1 µM. In assay [2], the Activity came out at 80% and the IC50 is 25.1 µM.

As for `CNC1(c2ccccc2Cl)CCCCC1=O` (stereo not given) [KETAMINE], in assay [1], the Activity is > 100% and the IC50 was 5.01 µM. In assay [2], the Activity is > 100% and the IC50 is 1.26 µM.

Consider `O=C1NCCCC1(c1ccccc1)N1CCCCC1` (stereo not given), for which, in assay [1], the Activity is 80% and the IC50 was 158 µM. Further, in assay [2], the Activity amounted to 80% and the IC50 was 25.1 µM.

Regarding `CN1CCC(c2ccccc2)(N2CCCCC2)C1=O` (stereo not given), the Activity in assay [1] and in assay [2] was 80% in each case. For the same compound, the IC50 in assay [1] was 251 µM; in assay [2], 50.1 µM.

For the compound `CCCCOc1cccc(C2(N3CCCCC3)CCCCC2)c1`, the Activity in assay [1] and in assay [2] was 94% each time. The 50% inhibitory concentration (IC50) in assay [1] was 20 µM; in assay [2], 2 µM.

As to `NC1(c2ccccc2Cl)CCCNC1=O` (stereo not given), the Activity in assay [1] and in assay [2] was 80% throughout. For the same compound, the IC50 in assay [1] and in assay [2] was > 50.1 µM each time.

`CN1CCCC(c2ccccc2)(N2CCCCC2)C1=O` (stereo not given): the Activity in assay [1] and in assay [2] was 80% in each case. The values for the IC50 in assay [1] and in assay [2] were > 251 µM and 3.16 µM, respectively.

Take `CCCCOc1ccc(C2(N3CCCCC3)CCCCC2)cc1`: in assay [1], the Activity was 94% and the IC50 was > 50.1 µM. In assay [2], the Activity is 94% and the 50% inhibitory concentration (IC50) was > 50.1 µM.

`COc1ccc(C2(N3CCCCC3)CCCCC2)cc1`: in assay [1], the Activity turned out to be 94% and the IC50 was 15.8 µM. Also, in assay [2], the Activity amounted to 94% and the IC50 is 3.98 µM.
